Assay [1] has as its target Protein-tyrosine kinase 6 (Homo sapiens, UniProt Q13882).
Assay [2] deals with T1, Mitogen-activated protein kinase 15 (Homo sapiens, UniProt Q8TD08).
T1 sequence (Q8TD08 whole entry): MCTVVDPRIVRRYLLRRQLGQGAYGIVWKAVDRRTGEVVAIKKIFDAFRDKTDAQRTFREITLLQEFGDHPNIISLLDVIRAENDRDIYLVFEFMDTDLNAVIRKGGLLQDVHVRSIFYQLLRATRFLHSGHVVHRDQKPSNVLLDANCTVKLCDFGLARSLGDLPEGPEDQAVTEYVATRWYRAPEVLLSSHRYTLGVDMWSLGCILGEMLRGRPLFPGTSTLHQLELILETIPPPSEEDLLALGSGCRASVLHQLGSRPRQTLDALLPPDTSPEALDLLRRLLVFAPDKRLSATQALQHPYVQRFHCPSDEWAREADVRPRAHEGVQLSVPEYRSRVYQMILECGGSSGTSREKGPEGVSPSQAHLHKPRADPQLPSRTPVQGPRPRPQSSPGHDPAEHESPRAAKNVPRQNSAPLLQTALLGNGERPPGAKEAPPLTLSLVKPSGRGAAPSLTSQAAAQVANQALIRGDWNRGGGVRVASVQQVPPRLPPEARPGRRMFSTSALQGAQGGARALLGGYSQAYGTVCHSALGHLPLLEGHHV

Assay [3] addresses Casein kinase I isoform delta (Homo sapiens, UniProt P48730).
Assay [4] concerns the target T2, MAP kinase-activated protein kinase 5 (Homo sapiens, UniProt Q8IW41).
T2 sequence (Q8IW41 whole entry): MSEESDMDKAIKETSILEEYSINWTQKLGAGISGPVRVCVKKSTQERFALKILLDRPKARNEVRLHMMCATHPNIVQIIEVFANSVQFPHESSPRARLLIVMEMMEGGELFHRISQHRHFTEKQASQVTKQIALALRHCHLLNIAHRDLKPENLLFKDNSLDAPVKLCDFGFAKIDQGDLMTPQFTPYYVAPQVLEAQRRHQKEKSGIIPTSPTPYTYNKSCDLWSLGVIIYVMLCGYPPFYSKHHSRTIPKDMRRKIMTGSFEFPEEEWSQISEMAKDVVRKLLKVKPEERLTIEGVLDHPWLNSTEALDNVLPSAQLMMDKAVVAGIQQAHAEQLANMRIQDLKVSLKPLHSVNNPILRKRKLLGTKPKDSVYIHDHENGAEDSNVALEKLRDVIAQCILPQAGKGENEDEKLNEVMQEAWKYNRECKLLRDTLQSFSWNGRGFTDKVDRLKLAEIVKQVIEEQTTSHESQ

Assay [5] concerns the target Tyrosine-protein kinase ABL2 (Homo sapiens, UniProt P42684).
For assay [6], the target named is Mitogen-activated protein kinase kinase kinase 20 (Homo sapiens, UniProt Q9NYL2).
In assay [7] the target is Ribosomal protein S6 kinase alpha-4 (Homo sapiens, UniProt O75676).
Assay [8] has as its target RAC-gamma serine/threonine-protein kinase (Homo sapiens, UniProt Q9Y243).
Assay [9] concerns the target T3, NUAK family SNF1-like kinase 2 (Homo sapiens, UniProt Q9H093).
T3 sequence (Q9H093 whole entry): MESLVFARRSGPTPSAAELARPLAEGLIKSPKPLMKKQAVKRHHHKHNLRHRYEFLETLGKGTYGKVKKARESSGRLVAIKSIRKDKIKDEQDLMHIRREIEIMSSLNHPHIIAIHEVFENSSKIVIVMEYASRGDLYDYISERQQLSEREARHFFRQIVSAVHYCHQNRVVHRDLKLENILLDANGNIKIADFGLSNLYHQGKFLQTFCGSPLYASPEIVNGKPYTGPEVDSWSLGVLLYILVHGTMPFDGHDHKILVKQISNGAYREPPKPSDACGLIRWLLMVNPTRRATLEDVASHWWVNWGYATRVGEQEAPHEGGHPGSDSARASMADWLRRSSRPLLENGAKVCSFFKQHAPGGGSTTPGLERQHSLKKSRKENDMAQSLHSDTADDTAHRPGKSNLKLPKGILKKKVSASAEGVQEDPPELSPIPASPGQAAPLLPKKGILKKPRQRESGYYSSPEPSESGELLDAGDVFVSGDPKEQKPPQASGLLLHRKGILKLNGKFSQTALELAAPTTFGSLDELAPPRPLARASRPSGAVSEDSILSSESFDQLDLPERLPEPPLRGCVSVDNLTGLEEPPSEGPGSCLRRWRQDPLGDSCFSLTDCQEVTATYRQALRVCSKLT

Assay [10] deals with cAMP-dependent protein kinase catalytic subunit alpha (Homo sapiens, UniProt P17612).
The target in assay [11] is T4, Ras-related protein Rab-27A (Homo sapiens, UniProt P51159).
T4 sequence (P51159 whole entry): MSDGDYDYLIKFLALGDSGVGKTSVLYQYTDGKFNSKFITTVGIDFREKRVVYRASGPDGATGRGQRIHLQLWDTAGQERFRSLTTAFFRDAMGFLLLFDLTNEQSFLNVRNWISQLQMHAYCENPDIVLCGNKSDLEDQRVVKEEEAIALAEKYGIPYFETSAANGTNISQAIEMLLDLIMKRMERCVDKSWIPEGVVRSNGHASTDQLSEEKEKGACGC

In assay [12] the target is 5'-AMP-activated protein kinase catalytic subunit alpha-1 (Homo sapiens, UniProt Q13131).
Assay [13] deals with Macrophage-stimulating protein receptor (Homo sapiens, UniProt Q04912).

Molecules are shown by their SMILES. Calls of active or inactive are those of the source. For most assays here, no stated cut-off is given here; in the data, actives have a measured Kd and inactives only a lower limit. A value given as a limit tells only on which side of the number the result lay.

Sequence of Protein-tyrosine kinase 6 (Q13882 whole entry): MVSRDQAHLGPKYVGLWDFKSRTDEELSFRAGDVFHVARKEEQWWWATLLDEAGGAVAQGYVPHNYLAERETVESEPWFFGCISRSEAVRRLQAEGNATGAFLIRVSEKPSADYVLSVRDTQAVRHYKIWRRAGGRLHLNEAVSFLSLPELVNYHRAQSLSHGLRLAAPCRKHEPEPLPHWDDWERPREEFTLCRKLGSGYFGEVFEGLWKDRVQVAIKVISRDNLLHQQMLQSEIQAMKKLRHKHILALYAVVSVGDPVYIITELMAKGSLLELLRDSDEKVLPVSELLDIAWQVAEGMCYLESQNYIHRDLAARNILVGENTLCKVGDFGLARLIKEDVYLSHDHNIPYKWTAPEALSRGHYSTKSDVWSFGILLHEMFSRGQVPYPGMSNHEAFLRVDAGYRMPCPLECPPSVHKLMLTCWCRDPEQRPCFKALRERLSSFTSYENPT
Sequence of 5'-AMP-activated protein kinase catalytic subunit alpha-1 (Q13131 whole entry): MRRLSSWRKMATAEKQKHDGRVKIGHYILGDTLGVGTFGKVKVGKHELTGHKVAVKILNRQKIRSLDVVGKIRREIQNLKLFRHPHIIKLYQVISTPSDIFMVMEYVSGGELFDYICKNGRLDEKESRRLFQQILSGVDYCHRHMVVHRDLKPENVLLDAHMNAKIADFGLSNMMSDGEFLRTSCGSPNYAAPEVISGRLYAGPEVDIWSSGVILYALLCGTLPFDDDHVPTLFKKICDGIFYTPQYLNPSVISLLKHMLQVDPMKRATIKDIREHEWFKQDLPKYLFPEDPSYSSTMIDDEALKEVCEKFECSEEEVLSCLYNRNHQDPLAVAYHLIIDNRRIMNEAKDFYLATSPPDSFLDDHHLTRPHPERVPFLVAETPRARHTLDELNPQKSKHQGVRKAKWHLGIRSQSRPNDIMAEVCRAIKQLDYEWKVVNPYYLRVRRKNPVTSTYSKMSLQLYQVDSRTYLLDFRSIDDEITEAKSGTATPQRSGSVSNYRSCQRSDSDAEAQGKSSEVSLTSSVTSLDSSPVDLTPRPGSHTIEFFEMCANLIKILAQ
Sequence of Casein kinase I isoform delta (P48730 whole entry, canonical isoform): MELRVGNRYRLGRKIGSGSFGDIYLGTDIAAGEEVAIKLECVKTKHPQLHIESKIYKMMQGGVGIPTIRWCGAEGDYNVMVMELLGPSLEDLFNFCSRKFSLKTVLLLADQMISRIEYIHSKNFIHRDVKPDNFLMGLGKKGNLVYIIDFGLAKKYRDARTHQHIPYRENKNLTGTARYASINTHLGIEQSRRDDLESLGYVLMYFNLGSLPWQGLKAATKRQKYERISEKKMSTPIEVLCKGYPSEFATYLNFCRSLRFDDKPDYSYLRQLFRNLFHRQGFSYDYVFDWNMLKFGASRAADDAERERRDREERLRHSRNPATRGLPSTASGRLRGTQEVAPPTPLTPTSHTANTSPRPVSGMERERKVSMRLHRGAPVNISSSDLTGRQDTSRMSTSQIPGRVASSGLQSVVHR
Sequence of Tyrosine-protein kinase ABL2 (P42684 whole entry): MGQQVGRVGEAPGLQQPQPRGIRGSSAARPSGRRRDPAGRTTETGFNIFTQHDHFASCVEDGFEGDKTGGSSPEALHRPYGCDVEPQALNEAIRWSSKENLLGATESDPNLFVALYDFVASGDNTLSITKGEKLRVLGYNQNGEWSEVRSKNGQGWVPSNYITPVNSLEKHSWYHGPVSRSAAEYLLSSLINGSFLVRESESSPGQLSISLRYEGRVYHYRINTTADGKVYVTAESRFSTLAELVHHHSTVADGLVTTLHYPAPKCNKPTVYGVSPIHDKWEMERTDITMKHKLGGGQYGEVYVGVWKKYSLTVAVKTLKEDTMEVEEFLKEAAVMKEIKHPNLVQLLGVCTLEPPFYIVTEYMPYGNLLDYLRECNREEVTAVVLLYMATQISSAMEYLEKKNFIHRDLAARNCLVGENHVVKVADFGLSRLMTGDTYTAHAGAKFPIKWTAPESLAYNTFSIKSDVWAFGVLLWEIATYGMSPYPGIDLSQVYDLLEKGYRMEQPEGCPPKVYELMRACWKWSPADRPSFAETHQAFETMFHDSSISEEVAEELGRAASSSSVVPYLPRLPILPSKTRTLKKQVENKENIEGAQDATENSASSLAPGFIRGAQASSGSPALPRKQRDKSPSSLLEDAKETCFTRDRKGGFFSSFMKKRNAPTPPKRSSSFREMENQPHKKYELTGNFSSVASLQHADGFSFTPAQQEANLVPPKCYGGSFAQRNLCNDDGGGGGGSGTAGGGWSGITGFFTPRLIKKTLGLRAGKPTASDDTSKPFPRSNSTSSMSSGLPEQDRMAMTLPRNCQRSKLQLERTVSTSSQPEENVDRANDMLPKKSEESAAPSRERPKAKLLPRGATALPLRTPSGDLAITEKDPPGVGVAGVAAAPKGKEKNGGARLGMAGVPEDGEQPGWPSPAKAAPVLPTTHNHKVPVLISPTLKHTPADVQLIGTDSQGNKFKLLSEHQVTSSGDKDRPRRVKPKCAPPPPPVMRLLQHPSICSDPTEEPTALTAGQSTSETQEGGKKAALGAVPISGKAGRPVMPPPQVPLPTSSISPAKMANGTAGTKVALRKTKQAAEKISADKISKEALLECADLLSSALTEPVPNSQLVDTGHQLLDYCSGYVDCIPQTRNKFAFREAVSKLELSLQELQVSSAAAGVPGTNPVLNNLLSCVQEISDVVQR
Sequence of RAC-gamma serine/threonine-protein kinase (Q9Y243 whole entry): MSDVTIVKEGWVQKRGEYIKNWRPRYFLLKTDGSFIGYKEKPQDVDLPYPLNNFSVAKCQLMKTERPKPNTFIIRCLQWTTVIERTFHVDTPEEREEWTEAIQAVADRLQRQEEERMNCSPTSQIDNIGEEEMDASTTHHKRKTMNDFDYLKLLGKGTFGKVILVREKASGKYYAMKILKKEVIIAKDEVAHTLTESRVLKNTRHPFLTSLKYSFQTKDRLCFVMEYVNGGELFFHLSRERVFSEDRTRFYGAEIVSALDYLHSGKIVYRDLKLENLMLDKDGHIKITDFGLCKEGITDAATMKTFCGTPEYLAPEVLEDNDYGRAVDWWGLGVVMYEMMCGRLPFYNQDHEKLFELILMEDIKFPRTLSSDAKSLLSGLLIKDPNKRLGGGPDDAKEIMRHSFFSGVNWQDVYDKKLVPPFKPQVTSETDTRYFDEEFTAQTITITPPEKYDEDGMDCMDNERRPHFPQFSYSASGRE
Sequence of Ribosomal protein S6 kinase alpha-4 (O75676 whole entry): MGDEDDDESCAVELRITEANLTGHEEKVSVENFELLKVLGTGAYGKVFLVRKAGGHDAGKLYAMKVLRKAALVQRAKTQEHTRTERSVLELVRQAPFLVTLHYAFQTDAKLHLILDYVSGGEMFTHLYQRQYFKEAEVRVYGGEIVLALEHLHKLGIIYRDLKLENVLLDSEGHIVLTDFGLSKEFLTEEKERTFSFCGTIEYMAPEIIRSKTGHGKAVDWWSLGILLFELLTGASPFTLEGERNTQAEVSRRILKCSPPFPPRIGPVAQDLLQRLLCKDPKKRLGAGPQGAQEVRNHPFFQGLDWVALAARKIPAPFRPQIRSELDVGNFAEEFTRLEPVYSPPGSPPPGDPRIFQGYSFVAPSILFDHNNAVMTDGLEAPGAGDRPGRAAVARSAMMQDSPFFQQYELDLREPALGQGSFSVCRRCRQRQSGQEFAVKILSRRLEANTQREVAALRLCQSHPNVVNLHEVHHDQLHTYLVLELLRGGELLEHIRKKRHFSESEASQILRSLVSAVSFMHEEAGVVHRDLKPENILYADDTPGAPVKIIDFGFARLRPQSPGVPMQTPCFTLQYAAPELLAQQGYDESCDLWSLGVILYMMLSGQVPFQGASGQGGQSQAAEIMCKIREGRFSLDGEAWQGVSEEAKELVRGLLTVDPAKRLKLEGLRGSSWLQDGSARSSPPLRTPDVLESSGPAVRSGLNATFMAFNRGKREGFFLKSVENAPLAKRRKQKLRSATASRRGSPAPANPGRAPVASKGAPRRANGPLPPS
Sequence of Mitogen-activated protein kinase kinase kinase 20 (Q9NYL2 whole entry): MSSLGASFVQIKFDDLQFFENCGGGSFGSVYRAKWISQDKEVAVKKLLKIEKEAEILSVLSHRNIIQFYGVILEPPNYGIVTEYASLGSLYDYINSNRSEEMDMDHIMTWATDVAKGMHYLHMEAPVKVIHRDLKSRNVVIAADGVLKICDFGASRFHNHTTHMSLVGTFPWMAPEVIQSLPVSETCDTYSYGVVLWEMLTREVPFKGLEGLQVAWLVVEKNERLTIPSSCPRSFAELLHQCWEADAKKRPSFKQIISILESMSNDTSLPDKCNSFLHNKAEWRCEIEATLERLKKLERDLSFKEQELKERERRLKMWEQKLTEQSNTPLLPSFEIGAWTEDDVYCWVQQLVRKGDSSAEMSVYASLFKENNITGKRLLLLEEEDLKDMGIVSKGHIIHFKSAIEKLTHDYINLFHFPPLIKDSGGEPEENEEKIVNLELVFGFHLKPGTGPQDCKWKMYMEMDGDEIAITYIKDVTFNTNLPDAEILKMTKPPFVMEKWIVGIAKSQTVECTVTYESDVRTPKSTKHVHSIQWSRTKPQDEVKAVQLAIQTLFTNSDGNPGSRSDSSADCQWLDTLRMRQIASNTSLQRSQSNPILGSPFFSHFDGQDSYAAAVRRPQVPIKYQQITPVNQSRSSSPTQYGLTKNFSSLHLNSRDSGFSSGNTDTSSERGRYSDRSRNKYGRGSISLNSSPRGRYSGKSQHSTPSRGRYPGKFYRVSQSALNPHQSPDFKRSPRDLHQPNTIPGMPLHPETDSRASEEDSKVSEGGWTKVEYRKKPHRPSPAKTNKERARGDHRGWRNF

Turning to `CCN(CCCOc1ccc2c(Nc3cc(CC(=O)Nc4cccc(F)c4)n[nH]3)ncnc2c1)CCOP(=O)(O)O` [BARASERTIB], the Kd in [1], in assay [2], in [3], in assay [4], in assay [5] and in [6] was > 30 µM (inactive) throughout. The Kd in assay [7], in assay [8] and in assay [9] was > 30 µM (inactive) each time.

In the case of `C=CCn1c(=O)c2cnc(Nc3ccc(N4CCN(C)CC4)cc3)nc2n1-c1cccc(C(C)(C)O)n1` [ADAVOSERTIB], the Kd in [10], in assay [1], in assay [2], in assay [3], in [4] and in assay [5] was > 30 µM (inactive) throughout. The Kd in assay [6], in assay [7], in assay [11], in assay [8] and in [9] was > 30 µM (inactive) throughout.

Turning to `COc1cc2nccc(Oc3ccc(NC(=O)C4(C(=O)Nc5ccc(F)cc5)CC4)cc3)c2cc1OC` [CABOZANTINIB], the Kd is > 30 µM (inactive) in [10]; 1.76 µM (active) in assay [1]; > 30 µM (inactive) in [2]; > 30 µM (inactive) in [3]; > 30 µM (inactive) in [4]; 0.918 µM (active) in assay [5]. The Kd in assay [12], in assay [6], in assay [7], in [11], in assay [8] and in assay [9] was > 30 µM (inactive) throughout.

As for `COc1cc2c(N3CCN(C(=O)Nc4ccc(OC(C)C)cc4)CC3)ncnc2cc1OCCCN1CCCCC1` [TANDUTINIB], in assay [11], the Kd is > 30 µM (inactive).

For the compound `COc1cc2c(Oc3ccc4[nH]c(C)cc4c3F)ncnc2cc1OCCCN1CCCC1` [CEDIRANIB], the Kd was 1.22 µM (active) in assay [1] and > 30 µM (inactive) in assay [11].

In the case of `Cn1cnc2c(F)c(Nc3ccc(Br)cc3Cl)c(C(=O)NOCCO)cc21` [SELUMETINIB], in assay [11], the Kd was > 30 µM (inactive).

As to `Cc1cc(C(=O)Nc2cc(Oc3ccc4nc(NC(=O)C5CC5)cn4n3)ccc2C)n(C)n1` [TAK-593], the Kd is > 30 µM (inactive) in [10]; > 30 µM (inactive) in assay [1]; > 30 µM (inactive) in [2]; > 30 µM (inactive) in [3]; > 30 µM (inactive) in assay [4]; 4.06 µM (active) in assay [5]. Further, the Kd in assay [12], in [13], in [6], in [7] and in assay [9] was > 30 µM (inactive) each time.

In the case of `CN(C)C/C=C/C(=O)Nc1cc2c(Nc3ccc(F)c(Cl)c3)ncnc2cc1O[C@H]1CCOC1` [AFATINIB], the Kd in assay [11] was > 30 µM (inactive).

In the case of `CCOc1ccn(-c2ccc(F)cc2)c(=O)c1C(=O)Nc1ccc(Oc2ccnc(N)c2Cl)c(F)c1` [BMS-777607], the Kd in assay [10], in assay [1], in assay [2], in [3], in assay [4] and in assay [13] was > 30 µM (inactive) throughout. In addition, the Kd in assay [6], in [7], in assay [11], in assay [8] and in assay [9] was > 30 µM (inactive) throughout.

As to `CN(c1ncccc1CNc1nc(Nc2ccc3c(c2)CC(=O)N3)ncc1C(F)(F)F)S(C)(=O)=O` [PF-00562271], the Kd in [10] is > 30 µM (inactive); in [1], > 30 µM (inactive); in assay [2], 1.47 µM; in assay [5], > 30 µM (inactive); in [7] it was > 30 µM (inactive); in assay [11] it was > 30 µM (inactive). Further, the Kd in assay [9] is > 30 µM (inactive).

For `CC1(C)CNc2cc(NC(=O)c3cccnc3NCc3ccncc3)ccc21` [MOTESANIB], the Kd in [11] is > 30 µM (inactive).

`C[C@@]1(C(=O)Nc2ccc(F)nc2)CCCN1c1nc(Nc2cc(C3CC3)n[nH]2)c2cccn2n1` [BMS-754807]: the Kd in assay [11] and in [8] was > 30 µM (inactive) each time.

For the compound `O=S(=O)(c1cccc2cnccc12)N1CCCNCC1` [FASUDIL], the Kd in [1], in assay [2], in assay [4], in [5], in assay [6] and in assay [7] was > 30 µM (inactive) throughout. Also, the Kd in [11] and in [9] was > 30 µM (inactive) in each case.

For `O=S(=O)(c1cccc2c(O)nccc12)N1CCCNCC1` [HYDROXYFASUDIL], the Kd in [1], in assay [2], in assay [3], in assay [4], in [5] and in [12] was > 30 µM (inactive) in each case. For the same compound, the Kd in assay [13], in assay [6], in [7], in assay [11], in [8] and in [9] was > 30 µM (inactive) throughout.

As for `C[C@]1(O)C[C@@H](c2nc(-c3ccc4ccc(-c5ccccc5)nc4c3)c3c(N)nccn32)C1` [LINSITINIB], the Kd in assay [2], in assay [5], in assay [7], in assay [11] and in [9] was > 30 µM (inactive) in each case.

`Cn1c(=O)n(-c2ccc(C(C)(C)C#N)cc2)c2c3cc(-c4cnc5ccccc5c4)ccc3ncc21` [DACTOLISIB]: the Kd in [1], in [2], in [3], in assay [4], in assay [5] and in assay [6] was > 30 µM (inactive) throughout. For the same compound, the Kd in assay [7], in assay [11], in assay [8] and in assay [9] was > 30 µM (inactive) each time.

Usually Kd stands for a measure of binding affinity in units of concentration.

The record behind these values is ChEMBL document CHEMBL3991601, “The target landscape of clinical kinase drugs” (Science, 2017).
